Laboratory results as given in patent US20030185956A1, “Separation method” (priority 2000, published 2003).
≈ marks a conversion by molar mass, not a printed value.

Assays:
[1] = Product recovery from fungal culture broth into solvent in dialysis tubing; type: physicochemical; conditions: for recovered into the n-decane: 72 h incubation, nootkatol and nootkatone approx. 3.3 mg combined, valencene approx. 150 mg
Method: Product recovery experiments were carried out in fungal or bacterial cultures or in suspensions of fungal or bacterial cells. Reaction media contained: unreacted substrate valencene at 0.3-1.4 mg ml^−1 and the reaction products nootkatol and nootkatone in concentrations ranging from 0.02-0.2 mg ml^−1. Nootkatol and nootkatone differ from the substrate valencene by the presence of only a single hydroxyl or a single keto group respectively. [drawing 1]
Dialysis tubing (as described in Example 1) pre-soaked in deionised water, containing n-hexane (50 ml) was added to each of two separate fungal cultures. On addition of hexane filled tubing, reaction mixtures contained the following:
Culture one contained culture broth and biomass (100 ml), residual valencene (approximately 35 mg) and product nootkatone (2.3 mg). Culture two contained culture broth and biomass (100 ml), residual valencene (approximately 33 mg), product nootkatone (3.8 mg), and Tween 80 (trade mark) (1.3 g).
After 48 h extraction time (30° C., shaking at 160 rpm), 96% of nootkatone had been recovered from culture broth one into n-hexane in the dialysis tubing. The remaining nootkatone was detected in the culture broth. Valencene was not detected in the n-hexane extraction solvent. The efficiency of extraction from culture broth two was 68%. The remaining nootkatone was detected in the culture broth. A trace amount of valencene was detected in the extraction solvent.
Dialysis tubing (details described in Example 7) pre-soaked in deionised water, containing n-decane (50 ml) was added to a fungal culture medium containing: culture broth and biomass (100 ml); residual valencene (approximately 150 mg) and the products nootkatol and nootkatone (approx. 3.3 mg combined weight). After 72 h incubation (conditions described in Example 7) 100% of the nootkatol and nootkatone products had been recovered into the n-decane in the dialysis tubing. Valencene was not detected in the n-decane.

[2] = Selective extraction from water into n-decane in dialysis tubing (shaken flask); type: physicochemical; conditions: Example 6, 30° C., 45 hours; for amount present in the n-decane phase: 100 mg limonene + 20 mg carvone in 100 ml water, 50 ml n-decane, 150 rpm
Method: Dialysis tubing (cellulose acetate visking tubing MW cut off 12-14,000 Da) containing 50 ml n-decane was added to the flask and the whole incubated at 30° C. with shaking at 150 rpm for 45 hours.

physchem = conditions: 25 °C, water
[3] = Separation in model membrane reactor, water to n-decane across cellulose acetate dialysis membrane; type: physicochemical; conditions: for recovered into the decane / amount recovered into the decane: Example 5, after 2.5 days; for recovered into the decane: 20 g macerated grapefruit peel (nootkatone 4.3 mg, limonene 135 mg) in 35 ml water; for amount recovered into the decane: grapefruit peel
Method: (§1) Separation experiments were carried out in a small model membrane reactor which consisted of an upper and lower chamber separated by 0.002 m^2 of membrane. Thorough mixing was ensured by use of a magnetic stirrer with a separate stirring bar contained within each chamber. Membrane separations were carried out at room temperature (22° C.).
Gas Chromatography (g.c.)
Analysis of valencene, nootkatone, 1,2-epoxyoctane and 1-octene.
Column—SE-30 capillary (Alltech, Carnforth, Lancs, UK), ID 0.32 mm, film thickness 0.25 μm.
Temperature program 200° C. for 5 min. 10° C. min^−1
Injector/detector temperature—300° C.
Carrier gas-helium, head pressure 0.35 bar

[4] = Separation in model membrane reactor across Supor membrane; type: physicochemical; conditions: Example 3
Method: as §1

amount present in the n-decane phase [2] [mg]	share of amount originally added to the water phase found in n-decane [2] [%]	recovered into the decane [3]	amount recovered into the decane [3] [mg]	Structure (SMILES)	recovered into the n-decane ([1]; Example 8) [%]	other results
				C=C(C)[C@@H]1CCC2=CCC[C@@H](C)[C@]2(C)C1 [valencene]		presence in the n-hexane extraction solvent ([1]; Example 7, culture one): not detected; presence in the extraction solvent ([1]; Example 7, culture two (with Tween 80)): trace amount; presence in the n-decane ([1]; Example 8, 72 h): not detected
8	40			C=C(C)C1CC=C(C)C(=O)C1 (stereo not shown) [carvone]		solubility (physchem): ~600 µg/mL (≈ 3.99 mM)
				CCCCCCC1CO1 (stereo not shown) [1,2-epoxyoctane]		Rate of flux ([3]; not told): 1.45 g h^−1m^−2 for 1,2-epoxyoctane
		component limonene. After 2.5 days, 28%	1.2	C=C(C)[C@@H]1CCC2=CC(=O)C[C@@H](C)[C@]2(C)C1 [nootkatone]	100	Rate of flux ([3]; Example 1, cellulose acetate, thickness 0.05 mm, M.W. cut-off 12-14,000 Da): 0.08 g nootkatone h^−1m^−2. g h^−1m^−2; Rate of flux [4]: 0.130 g h^−1m^−2 for nootkatone; recovered from culture broth into n-hexane ([1]; Example 7, culture one (no Tween 80), 48 h, 30° C., 160 rpm): 96%; efficiency of extraction into n-hexane ([1]; Example 7, culture two (with Tween 80 1.3 g), 48 h, 30° C., 160 rpm): 68%
				C=C(C)[C@@H]1CCC2=CC(O)C[C@@H](C)[C@]2(C)C1 (stereo partly shown) [nootkatol]	100	
2.0	2	5%	4.6	C=C(C)[C@H]1CC=C(C)CC1 [limonene]		
